Assays:
[1] = Evaluation of total body clearance (CLtot), intravenous administration; format: in vivo, Sprague-Dawley (SD); details: rat (SD), intravenous administration 0.5-10 mg/kg; CLtot = dose/AUC
Experimental: Dose: Intravenous administration with designated doses was selected. (Doses were changed depending on compounds.) • 0.5-10 mg/kg (n=2-3) Preparation of dosing formulation: The dosing solution was prepared by dissolving in an adequate solvent. Administration method: The dosing solution was injected into the tail vein by a syringe with a needle Blood sampling: The blood was collected at the scheduled time and obtained the plasma. Plasma concentrations of the compound were measured by LC/MS/MS. Statistical analysis: Area under the plasma concentration-time curve (AUC) of the compound was calculated by pharmacokinetic analysis software, WinNonlin™ and CLtot was calculated by dividing the dose by AUC.

HIV-1 PR = HIV-1 PR (Human immunodeficiency virus type 1 group M subtype B, UniProt P04585); assay: HIV-protease inhibitory activity assay (FRET peptide substrate); format: biochemical; details: Test Example 1
How it was run: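 Fluorescence recovery at ex 485/em 535 nm reports cleavage of a quenched FRET peptide (2 μmol/L final) by 0.83 ng enzyme over 60 minutes at room temperature. Buffer was NaAc pH 4.8 with NaCl, EDTA, DTT and Tween 20. IC50 values came from four-parameter logistic regression of % inhibition.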

COc1ccc(S(=O)(=O)N(CC(C)C)CC(O)C(Cc2ccc(NCc3cocc3-c3sc4c(c3C(=O)O)CC(C)(C)CC4)cc2)NC(=O)OC2COC3(C)OCCC23)cc1 (stereo not shown) [Compound I-528]
rat_CLt [1]: 4.05 mL/min/kg
IC50 (HIV-1 PR): 2.36 nM

COc1ccc(S(=O)(=O)N(CC(C)C)CC(O)C(Cc2ccc(NCc3ccc(-c4ccccc4-c4sc5c(c4C(=O)O)CC(C)(C)CC5)cc3)cc2)NC(=O)OC2COC3(C)OCCC23)cc1 (stereo not shown) [Compound I-530]
rat_CLt [1]: 1.57 mL/min/kg
IC50 (HIV-1 PR): 8.31 nM

COc1ccc(S(=O)(=O)N(CC(C)C)CC(O)C(Cc2ccc(NCc3c(-c4sc5c(c4C(=O)O)CC(C)(C)CC5)ccc4ccccc34)cc2)NC(=O)OC2COC3(C)OCCC23)cc1 (stereo not shown) [Compound I-531]
rat_CLt [1]: 0.0543 mL/min/kg
IC50 (HIV-1 PR): 6.98 nM

COc1ccc(S(=O)(=O)N(CC(C)C)CC(O)C(Cc2ccc(NCc3ccc(C)c(-c4sc5c(c4C(=O)O)CC(C)(C)CC5)c3)cc2)NC(=O)OC2COC3(C)OCCC23)cc1 (stereo not shown) [Compound I-532]
rat_CLt [1]: 0.551 mL/min/kg
IC50 (HIV-1 PR): 4.14 nM

COc1ccc(S(=O)(=O)N(CC(C)C)CC(O)C(Cc2ccc(N(C)Cc3cccc(C(F)(F)F)c3-c3sc4c(c3C(=O)O)CC(C)(C)CC4)cc2)NC(=O)OC2COC3(C)OCCC23)cc1 (stereo not shown) [Compound I-537]
rat_CLt [1]: 0.328 mL/min/kg
IC50 (HIV-1 PR): 5.5 nM

COc1ccc(S(=O)(=O)N(CC(C)C)CC(O)C(Cc2ccc(N(C)Cc3cc(N(C)C)ccc3-c3sc4c(c3C(=O)O)CC(C)(C)CC4)cc2)NC(=O)OC2COC3(C)OCCC23)cc1 (stereo not shown) [Compound I-538]
rat_CLt [1]: 0.598 mL/min/kg
IC50 (HIV-1 PR): 2.86 nM

COc1ccc(S(=O)(=O)N(CC(C)C)CC(O)C(Cc2ccc(N(C)Cc3cc(N4CCCC4)ccc3-c3sc4c(c3C(=O)O)CC(C)(C)CC4)cc2)NC(=O)OC2COC3(C)OCCC23)cc1 (stereo not shown) [Compound I-539]
rat_CLt [1]: 0.156 mL/min/kg
IC50 (HIV-1 PR): 2.91 nM

COc1ccc(S(=O)(=O)N(CC(C)C)CC(O)C(Cc2ccc(N(C)Cc3ccc(C(F)(F)F)cc3-c3sc4c(c3C(=O)O)CC(C)(C)CC4)cc2)NC(=O)OC2COC3(C)OCCC23)cc1 (stereo not shown) [Compound I-540]
rat_CLt [1]: 1.5 mL/min/kg
IC50 (HIV-1 PR): 27.8 nM

COc1ccc(S(=O)(=O)N(CC(C)C)CC(O)C(Cc2ccc(NCc3cc(OC)c(OC)cc3C(=O)Nc3sc4c(c3C(=O)O)CC(C)(C)CC4)cc2)NC(=O)OC2COC3(C)OCCC23)cc1 (stereo not shown) [Compound I-541]
rat_CLt [1]: 0.195 mL/min/kg
IC50 (HIV-1 PR): 2.34 nM

COc1ccc(S(=O)(=O)N(CC(C)C)CC(O)C(Cc2ccc(NCc3cc(C)ccc3-c3sc4c(c3C(=O)O)CC(C)(C)CC4)cc2)NC(=O)OC2COC3(C)OCCC23)cc1 (stereo not shown) [Compound I-545]
rat_CLt [1]: 1.15 mL/min/kg
IC50 (HIV-1 PR): 1.85 nM

COc1ccc(S(=O)(=O)N(CC(C)C)CC(O)C(Cc2ccc(NCc3cc(-c4sc5c(c4C(=O)O)CC(C)(C)CC5)ccc3C)cc2)NC(=O)OC2COC3(C)OCCC23)cc1 (stereo not shown) [Compound I-550]
rat_CLt [1]: 5.29 mL/min/kg
IC50 (HIV-1 PR): 1.75 nM

COc1ccc(S(=O)(=O)N(CC(C)C)CC(O)C(Cc2ccc(NCc3cc4c(cc3-c3sc5c(c3C(=O)O)CC(C)(C)CC5)OCO4)cc2)NC(=O)OC2COC3(C)OCCC23)cc1 (stereo not shown) [Compound I-552]
rat_CLt [1]: 0.985 mL/min/kg
IC50 (HIV-1 PR): 1.41 nM

COc1ccc(S(=O)(=O)N(CC(C)C)CC(O)C(Cc2ccc(NCc3ccc(-c4sc5c(c4C(=O)O)CC(C)(C)CC5)cc3O)cc2)NC(=O)OC2COC3(C)OCCC23)cc1 (stereo not shown) [Compound I-555]
rat_CLt [1]: 5.98 mL/min/kg
IC50 (HIV-1 PR): 1.68 nM

COc1ccc(S(=O)(=O)N(CC(C)C)CC(O)C(Cc2ccc(NCc3cc(OC)c(OC)cc3-c3sc4c(c3C(=O)O)CC(C)(C)CC4)cc2)NC(=O)OC2COC3(C)OCCC23)cc1 (stereo not shown) [Compound I-560]
rat_CLt [1]: 4.5 mL/min/kg
IC50 (HIV-1 PR): 1.65 nM

COc1ccc(S(=O)(=O)N(CC(C)C)CC(O)C(Cc2ccc(NCc3cc(O)ccc3-c3sc4c(c3C(=O)O)CC(C)(C)CC4)cc2)NC(=O)OC2COC3(C)OCCC23)cc1 (stereo not shown) [Compound I-561]
rat_CLt [1]: 4.48 mL/min/kg
IC50 (HIV-1 PR): 1.35 nM

COc1ccc(S(=O)(=O)N(CC(C)C)CC(O)C(Cc2ccc(NCc3ccc(Cl)cc3-c3sc4c(c3C(=O)O)CC(C)(C)CC4)cc2)NC(=O)OC2COC3(C)OCCC23)cc1 (stereo not shown) [Compound I-563]
rat_CLt [1]: 0.883 mL/min/kg
IC50 (HIV-1 PR): 2.13 nM

COc1ccc(S(=O)(=O)N(CC(C)C)CC(O)C(Cc2ccc(NCc3cc(OC)ccc3-c3sc4c(c3C(=O)O)CC(C)(C)CC4)cc2)NC(=O)OC2COC3(C)OCCC23)cc1 (stereo not shown) [Compound I-566]
rat_CLt [1]: 0.727 mL/min/kg
IC50 (HIV-1 PR): 1.61 nM

COc1ccc(S(=O)(=O)N(CC(C)C)CC(O)C(Cc2ccc(NCc3cc([N+](=O)[O-])ccc3-c3sc4c(c3C(=O)O)CC(C)(C)CC4)cc2)NC(=O)OC2COC3(C)OCCC23)cc1 (stereo not shown) [Compound I-567]
rat_CLt [1]: 2.81 mL/min/kg
IC50 (HIV-1 PR): 3.12 nM

COc1ccc(S(=O)(=O)N(CC(C)C)CC(O)C(Cc2ccc(NCc3ccccc3NC(=O)c3sc4c(c3C(=O)O)CC(C)(C)CC4)cc2)NC(=O)OC2COC3(C)OCCC23)cc1 (stereo not shown) [Compound I-574]
rat_CLt [1]: 1.01 mL/min/kg
IC50 (HIV-1 PR): 2.93 nM

COc1ccc(S(=O)(=O)N(CC(C)C)CC(O)C(Cc2ccc(N3CC(Oc4ccccc4C(=O)Nc4sc5c(c4C(=O)O)CC(C)(C)CC5)C3)cc2)NC(=O)OC2COC3(C)OCCC23)cc1 (stereo not shown) [Compound I-575]
rat_CLt [1]: 0.267 mL/min/kg
IC50 (HIV-1 PR): 8.32 nM

COc1ccc(S(=O)(=O)N(CC(C)C)CC(O)C(Cc2ccc(N3CCC(Oc4ccccc4-c4sc5c(c4C(=O)O)CC(C)(C)CC5)CC3)cc2)NC(=O)OC2COC3(C)OCCC23)cc1 (stereo not shown) [Compound I-578]
rat_CLt [1]: 3.16 mL/min/kg
IC50 (HIV-1 PR): 2.39 nM

COc1ccc(S(=O)(=O)N(CC(C)C)CC(O)C(Cc2ccc(N3CCC(Oc4cc(C(F)(F)F)ccc4-c4sc5c(c4C(=O)O)CC(C)(C)CC5)C3)cc2)NC(=O)OC2COC3(C)OCCC23)cc1 (stereo not shown) [Compound I-579]
rat_CLt [1]: 1.66 mL/min/kg
IC50 (HIV-1 PR): 4.38 nM

COc1ccc(S(=O)(=O)N(CC(C)C)CC(O)C(Cc2ccc(NCc3ccc(OC)cc3C(=O)Nc3sc4c(c3C(=O)O)CC(C)(C)CC4)cc2)NC(=O)OC2COC3(C)OCCC23)cc1 (stereo not shown) [Compound I-580]
rat_CLt [1]: 0.0683 mL/min/kg
IC50 (HIV-1 PR): 3.23 nM

COc1ccc(S(=O)(=O)N(CC(C)C)CC(O)C(Cc2ccc(NCc3cc4ccccc4cc3-c3sc4c(c3C(=O)O)CC(C)(C)CC4)cc2)NC(=O)OC2COC3(C)OCCC23)cc1 (stereo not shown) [Compound I-581]
rat_CLt [1]: 0.204 mL/min/kg
IC50 (HIV-1 PR): 4.02 nM

COc1ccc(S(=O)(=O)N(CC(C)C)CC(O)C(Cc2ccc(N(C)Cc3cc4ccccc4cc3-c3sc4c(c3C(=O)O)CC(C)(C)CC4)cc2)NC(=O)OC2COC3(C)OCCC23)cc1 (stereo not shown) [Compound I-582]
rat_CLt [1]: 0.179 mL/min/kg
IC50 (HIV-1 PR): 9.36 nM

COc1ccc(S(=O)(=O)N(CC(C)C)CC(O)C(Cc2ccc(N(C)Cc3cc(N4CCCC4=O)ccc3-c3sc4c(c3C(=O)O)CC(C)(C)CC4)cc2)NC(=O)OC2COC3(C)OCCC23)cc1 (stereo not shown) [Compound I-584]
rat_CLt [1]: 0.77 mL/min/kg
IC50 (HIV-1 PR): 2.3 nM

COc1ccc(S(=O)(=O)N(CC(C)C)CC(O)C(Cc2ccc(N3CCC(Oc4ccccc4C(=O)Nc4sc5c(c4C(=O)O)CC(C)(C)CC5)C3)cc2)NC(=O)OC2COC3(C)OCCC23)cc1 (stereo not shown) [Compound I-588]
rat_CLt [1]: 0.291 mL/min/kg
IC50 (HIV-1 PR): 3.29 nM

COc1ccc(S(=O)(=O)N(CC(C)C)CC(O)C(Cc2ccc(NCC3=C(C(=O)Nc4sc5c(c4C(=O)O)CC(C)(C)CC5)CCC3)cc2)NC(=O)OC2COC3(C)OCCC23)cc1 (stereo not shown) [Compound I-589]
rat_CLt [1]: 0.311 mL/min/kg
IC50 (HIV-1 PR): 3.48 nM

COc1ccc(S(=O)(=O)N(CC(C)C)C[C@@H](O)[C@H](Cc2ccc(N3CC[C@H](Oc4ccccc4-n4nc5c(c4C(=O)O)CC(C)(C)CC5)C3)cc2)NC(=O)O[C@H]2CO[C@@]3(C)OCC[C@@H]23)cc1 [Compound I-596]
rat_CLt [1]: 0.213 mL/min/kg
IC50 (HIV-1 PR): 1.54 nM

COc1ccc(S(=O)(=O)N(CC(C)C)CC(O)C(Cc2ccc(NCc3cccc(C)c3-c3sc4c(c3C(=O)O)CC(C)(C)CC4)cc2)NC(=O)OC2COC3(C)OCCC23)cc1 (stereo not shown) [Compound I-598]
rat_CLt [1]: 0.532 mL/min/kg
IC50 (HIV-1 PR): 2.12 nM

COc1ccc(S(=O)(=O)N(CC(C)C)CC(O)C(Cc2ccc(N(C)Cc3cccc(C)c3-c3sc4c(c3C(=O)O)CC(C)(C)CC4)cc2)NC(=O)OC2COC3(C)OCCC23)cc1 (stereo not shown) [Compound I-599]
rat_CLt [1]: 0.479 mL/min/kg
IC50 (HIV-1 PR): 2.46 nM

CC1(C)CCc2sc(NC(=O)c3ccccc3CNc3ccc(CC(NC(=O)OC4COC5(C)OCCC45)C(O)CN(CC4CCCC4)S(=O)(=O)c4ccc5c(c4)OCO5)cc3)c(C(=O)O)c2C1 (stereo not shown) [Compound I-600]
rat_CLt [1]: 0.104 mL/min/kg
IC50 (HIV-1 PR): 5.07 nM

CC1(C)CCc2sc(NC(=O)c3ccccc3CNc3ccc(CC(NC(=O)OC4COC5(C)OCCC45)C(O)CN(CC4CCCC4)S(=O)(=O)c4ccc5ncsc5c4)cc3)c(C(=O)O)c2C1 (stereo not shown) [Compound I-601]
rat_CLt [1]: 0.164 mL/min/kg
IC50 (HIV-1 PR): 3.26 nM

COc1ccc(S(=O)(=O)N(CC2CCC2)CC(O)C(Cc2ccc(NCc3ccccc3C(=O)Nc3sc4c(c3C(=O)O)CC(C)(C)CC4)cc2)NC(=O)OC2COC3(C)OCCC23)cc1 (stereo not shown) [Compound I-602]
rat_CLt [1]: 0.0667 mL/min/kg
IC50 (HIV-1 PR): 3.67 nM

COc1ccc(S(=O)(=O)N(CC(C)C)CC(O)C(Cc2ccc(NC(C)c3ccccc3-c3sc4c(c3C(=O)O)CC(C)(C)CC4)cc2)NC(=O)OC2COC3(C)OCCC23)cc1 (stereo not shown) [Compound I-603]
rat_CLt [1]: 5.83 mL/min/kg
IC50 (HIV-1 PR): 3.65 nM
